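Briefly, cells in 96-well plates were exposed to five compound concentrations for 48 h, and endpoints were estimated by linear interpolation. At the GI50, growth is halved.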 The source made the active and inactive calls. Rule as the data show it: active = GI50 up to about 1.1 µM and inactive = higher.
Tests used:
Assay in all cases: NCI-60 cell line screen, 48 h
HCC 2998 = test system: HCC 2998
NCI-H460 = test system: NCI-H460
OVCAR-8 = test system: OVCAR-8
NCI-H522 = test system: NCI-H522
SR = test system: SR
HCT-116 = test system: HCT-116
SNB-19 = test system: SNB-19
HOP-62 = test system: HOP-62
M14 = test system: M14
OVCAR-3 = test system: OVCAR-3
HT-29 = test system: HT-29
EKVX = test system: EKVX
SNB-78 = test system: SNB-78
A498 = test system: A498
KM12 = test system: KM12
UACC-62 = test system: UACC-62
MDA-N = test system: MDA-N
DU-145 = test system: DU-145
Hs-578T = test system: Hs-578T
NCI/ADR-RES = test system: NCI/ADR-RES

Measured: GI50

c1cc(-c2cn3c(n2)SCC3)ccn1
inactive: HCC 2998 > 100 µM | NCI-H460 > 55.3 µM | OVCAR-8 > 100 µM | NCI-H522 > 100 µM | SR > 100 µM | HCT-116 > 42.4 µM | SNB-19 > 100 µM | HOP-62 > 100 µM | M14 > 70.8 µM | OVCAR-3 > 100 µM | HT-29 > 100 µM | EKVX > 68.9 µM | SNB-78 > 100 µM | A498 > 100 µM | KM12 > 100 µM | UACC-62 > 100 µM

Cc1nc(-n2nc(-c3ccccc3)cc2-c2ccccc2)sc1C(=O)CC(=O)C(=O)Nc1ccc(Cl)c(Cl)c1
inactive: HCC 2998 > 100 µM | NCI-H460 71.4 µM | OVCAR-8 > 100 µM | NCI-H522 32.6 µM | SR > 100 µM | HCT-116 64.6 µM | SNB-19 79.4 µM | HOP-62 > 100 µM | M14 > 100 µM | OVCAR-3 69.2 µM | HT-29 29.9 µM | EKVX 15.1 µM | SNB-78 > 100 µM | A498 40.7 µM | KM12 35.9 µM | UACC-62 45.8 µM

CC[C@@H]1NC(C(=O)OC)Cc2c1[nH]c1ccccc21 (some centres undefined)
inactive: HCC 2998 > 100 µM | NCI-H460 27.9 µM | OVCAR-8 > 100 µM | SR > 100 µM | HCT-116 > 100 µM | SNB-19 > 100 µM | M14 > 100 µM | OVCAR-3 > 100 µM | HT-29 > 100 µM | EKVX > 100 µM | SNB-78 > 100 µM | A498 > 100 µM | KM12 > 100 µM | UACC-62 > 100 µM

Cc1[nH]c2ccccc2c1C1Cc2ccccc2N1C(=O)C#Cc1ccc([N+](=O)[O-])cc1 (centres undefined)
inactive: HCC 2998 > 100 µM | NCI-H460 > 100 µM | OVCAR-8 > 100 µM | SR 8 µM | HCT-116 > 100 µM | SNB-19 > 100 µM | HOP-62 > 100 µM | M14 > 100 µM | OVCAR-3 > 100 µM | HT-29 > 100 µM | EKVX > 100 µM | SNB-78 > 100 µM | A498 > 100 µM | KM12 > 100 µM | UACC-62 > 100 µM

C=CCONC(=O)c1ccc(Cl)cc1
inactive: HCC 2998 > 100 µM | NCI-H460 > 100 µM | OVCAR-8 > 100 µM | NCI-H522 > 100 µM | SR > 100 µM | HCT-116 > 100 µM | SNB-19 > 100 µM | HOP-62 > 100 µM | M14 > 100 µM | HT-29 > 100 µM | EKVX > 100 µM | SNB-78 > 100 µM | A498 > 100 µM | KM12 > 100 µM | UACC-62 > 100 µM

O=C1C(c2ccccc2)=C(c2ccccc2)C(c2ccc(CCCCCCc3ccc(C4=C(c5ccccc5)C(=O)C(c5ccccc5)=C4c4ccccc4)cc3)cc2)=C1c1ccccc1
inactive: HCC 2998 > 100 µM | NCI-H460 > 100 µM | OVCAR-8 > 100 µM | NCI-H522 > 100 µM | HCT-116 > 100 µM | SNB-19 65 µM | HOP-62 > 100 µM | M14 > 100 µM | OVCAR-3 > 100 µM | HT-29 > 100 µM | EKVX > 100 µM | SNB-78 > 100 µM | KM12 > 100 µM | UACC-62 > 100 µM

CCN(c1ccc(Br)cc1)c1c(Br)c(=O)nc2ccccn12
inactive: NCI-H460 > 100 µM | OVCAR-8 > 100 µM | NCI-H522 62.2 µM | SR > 100 µM | HCT-116 > 100 µM | SNB-19 > 100 µM | HOP-62 > 100 µM | M14 > 100 µM | OVCAR-3 > 100 µM | HT-29 > 100 µM | EKVX 73.3 µM | SNB-78 > 100 µM | A498 > 100 µM | KM12 > 100 µM | UACC-62 65 µM

CC(C)N(C(=O)C12C3C4C5(C#N)C3C1(C#N)C5C42I)C(C)C (centres undefined)
inactive: HCC 2998 > 100 µM | NCI-H460 > 53.6 µM | OVCAR-8 > 85.5 µM | NCI-H522 > 33.7 µM | SR 13.4 µM | HCT-116 17.4 µM | SNB-19 > 100 µM | HOP-62 > 100 µM | M14 > 100 µM | OVCAR-3 > 100 µM | HT-29 > 100 µM | EKVX > 100 µM | SNB-78 > 100 µM | A498 > 100 µM | KM12 > 100 µM | UACC-62 > 100 µM

CC(/C=C/C(=O)c1sc(-n2nc(-c3ccccc3)cc2-c2ccccc2)nc1C)=C\c1ccccc1
inactive: HCC 2998 23.7 µM | NCI-H460 52.7 µM | OVCAR-8 17.5 µM | NCI-H522 19 µM | SR 27.2 µM | HCT-116 62.5 µM | SNB-19 64.3 µM | HOP-62 > 10 µM | M14 > 10 µM | OVCAR-3 26.7 µM | HT-29 > 10 µM | EKVX 5.05 µM | SNB-78 > 10 µM | A498 > 10 µM | KM12 23.8 µM | UACC-62 40.5 µM

O=C(CC1OC(O)C(Cl)=C1Cl)c1cccnc1 (centres undefined)
inactive: HCC 2998 > 71.8 µM | NCI-H460 > 73.5 µM | OVCAR-8 > 100 µM | NCI-H522 > 100 µM | SR > 100 µM | HCT-116 > 39.8 µM | SNB-19 > 100 µM | HOP-62 > 50.2 µM | M14 > 100 µM | OVCAR-3 > 100 µM | HT-29 > 42.3 µM | EKVX > 100 µM | SNB-78 > 100 µM | A498 > 100 µM | KM12 > 100 µM | UACC-62 > 100 µM

CC(=O)OCCOCNC(=S)N/N=C/c1ccc([N+](=O)[O-])o1
inactive: HCC 2998 40.7 µM | NCI-H460 28.7 µM | OVCAR-8 77.3 µM | NCI-H522 64.4 µM | HCT-116 40 µM | SNB-19 > 100 µM | HOP-62 > 100 µM | M14 36.6 µM | OVCAR-3 33.6 µM | HT-29 30.3 µM | EKVX > 100 µM | SNB-78 > 100 µM | A498 > 100 µM | KM12 57 µM | UACC-62 18.5 µM

COC(=O)c1ccc(OCc2ccc3nc(OC)c(OC)nc3c2)cc1
inactive: HCC 2998 > 100 µM | NCI-H460 > 100 µM | OVCAR-8 > 100 µM | NCI-H522 34 µM | SR > 100 µM | HCT-116 89.9 µM | SNB-19 > 100 µM | HOP-62 68.4 µM | M14 > 100 µM | OVCAR-3 > 100 µM | HT-29 > 100 µM | EKVX > 100 µM | SNB-78 > 100 µM | KM12 > 100 µM

CN1C(=O)C2C(C1=O)C1(O)c3ccccc3C2(N)c2ccccc21 (centres undefined)
inactive: HCC 2998 > 100 µM | NCI-H460 > 100 µM | OVCAR-8 > 100 µM | HCT-116 > 100 µM | SNB-19 > 100 µM | HOP-62 > 100 µM | M14 > 100 µM | OVCAR-3 > 100 µM | HT-29 > 100 µM | EKVX > 100 µM | SNB-78 > 100 µM | A498 35.2 µM | KM12 > 100 µM | UACC-62 > 100 µM

C=C(CO[Si](C)(C)C(C)(C)C)C(C)=O
inactive: MDA-N 15.3 µM | HCC 2998 26.1 µM | NCI-H460 > 77.4 µM | OVCAR-8 18.8 µM | NCI-H522 3.78 µM | SR 3.55 µM | HCT-116 13.3 µM | SNB-19 > 86.1 µM | HOP-62 > 100 µM | M14 13.1 µM | OVCAR-3 20.4 µM | HT-29 19.5 µM | DU-145 > 100 µM | EKVX > 100 µM | A498 > 100 µM | KM12 58.1 µM | UACC-62 15.7 µM | Hs-578T 25.8 µM | NCI/ADR-RES 26.9 µM

C=C(CO)CC(O)c1ccccc1 (centres undefined)
inactive: HCC 2998 > 100 µM | NCI-H460 > 100 µM | OVCAR-8 > 100 µM | NCI-H522 > 100 µM | HCT-116 > 100 µM | SNB-19 > 100 µM | HOP-62 > 100 µM | M14 > 100 µM | OVCAR-3 > 100 µM | HT-29 > 100 µM | EKVX > 100 µM | SNB-78 > 100 µM | A498 > 100 µM | KM12 > 100 µM | UACC-62 > 100 µM

CC1Cc2c(Br)nc(N)nc2NC1=O (centres undefined)
inactive: MDA-N > 100 µM | HCC 2998 > 100 µM | NCI-H460 > 100 µM | OVCAR-8 > 100 µM | NCI-H522 > 100 µM | SR 86.3 µM | HCT-116 > 100 µM | SNB-19 > 100 µM | HOP-62 > 100 µM | M14 > 100 µM | OVCAR-3 > 100 µM | HT-29 > 100 µM | DU-145 > 100 µM | EKVX > 100 µM | A498 > 100 µM | KM12 > 100 µM | UACC-62 > 100 µM | Hs-578T > 100 µM | NCI/ADR-RES > 100 µM

O=C1c2cc3c(cc2[C@@H]2NC4CCCC14O2)OCO3 (some centres undefined)
inactive: NCI-H460 > 100 µM | OVCAR-8 > 100 µM | NCI-H522 > 100 µM | SR > 100 µM | HCT-116 > 100 µM | SNB-19 > 100 µM | HOP-62 > 100 µM | M14 > 100 µM | OVCAR-3 > 100 µM | HT-29 > 100 µM | EKVX > 100 µM | SNB-78 > 100 µM | A498 > 100 µM | KM12 > 100 µM | UACC-62 > 100 µM

Reference: ChEMBL document CHEMBL1201862, “PubChem BioAssay data set” (2004)
